# Assay results taken from US7501542B2, “Highly-packed polycationic ammonium, sulfonium and phosphonium lipids” (Invitrogen Corporation, priority 1993, dated 2009).
# How the values were obtained:
# [1] = tested on: Jurkat cells; assay: Transfection of Jurkat cells with pCMVCAT DNA, CAT activity of cell lysates; assay type: cell-based
# Protocol: (§1) All cell lines were obtained from American Type Culture Collection (Rockville, Md.). Standard tissue culture methods were employed. Chinese hamster ovary (CHO-K1) cells were cultured in EMEM (GIBCO BRL) containing 2 mM proline and 5% (v/v) fetal bovine serum (FBS). NIH 3T3 cells were cultured in Dulbecco's-modified Eagle's medium (DMEM) containing 10% (v/v) calf serum (CS). Jurkat cells were cultured in RPMI 1640 (GIBCO BRL) containing 10% (v/v) FBS. Human fibroblasts were isolated from neonatal foreskin tissue and prepared as follows. Rinsed, fresh tissue was exposed to 25 units/ml dispase (Collaborative Research, Bedford, Mass.) overnight at 4° C., separated into epidermis and dermis, and the minced dermis was digested 10 min at 37° C. in 0.25% (v/v) trypsin, 1 mM EDTA. The reaction was stopped by a rinse and centrifugation in DMEM with 10% (v/v) FBS, in which the cells were also cultured. All cultures were incubated at 37° C., 5% CO2. Media for all cultures routinely included 100 units/ml penicillin and 100 μg/ml streptomycin.
# For transfection of Jurkat cells in suspension, lipid and DNA (pCMVCAT) were diluted separately into 500 μl aliquots of Opti-MEM I Reduced Serum Medium (GIBCO BRL; serum-free). These aliquots were gently mixed and incubated at room temperature for 15-45 minutes to form lipid-DNA complexes. […]
# [2] = tested on: NIH-3T3 cells; assay: Transfection of NIH-3T3 cells with pCMV β-gal DNA, in situ β-galactosidase staining; assay type: cell-based
# Protocol: as §1, with “streptomycin. […]” for “streptomycin.”
# (§2) Cell lysates were assayed for β-galactosidase activity as described by Sanes et al. (1986) EMBO J. 5:3133. […] Transfection efficiency is evaluated by counting or estimating the number of β-gal positive cells (blue-stained cells). […]
# [3] = tested on: CHO-K1 cells; assay: Transfection of CHO-K1 cells with pCMV β-gal DNA, in situ β-galactosidase staining; assay type: cell-based, Chinese hamster; conditions: CHO-K1 cells (Table 3)
# Protocol: as §1, with “streptomycin. […]” for “streptomycin.”
# as §2
# [4] = tested on: primary human fibroblasts; assay: Transfection of primary human fibroblasts with pCMV β-gal DNA, in situ β-galactosidase staining; assay type: cell-based
# Protocol: All cell lines were obtained from American Type Culture Collection (Rockville, Md.). Standard tissue culture methods were employed. […] Human fibroblasts were isolated from neonatal foreskin tissue and prepared as follows. Rinsed, fresh tissue was exposed to 25 units/ml dispase (Collaborative Research, Bedford, Mass.) overnight at 4° C., separated into epidermis and dermis, and the minced dermis was digested 10 min at 37° C. in 0.25% (v/v) trypsin, 1 mM EDTA. The reaction was stopped by a rinse and centrifugation in DMEM with 10% (v/v) FBS, in which the cells were also cultured. All cultures were incubated at 37° C., 5% CO2. Media for all cultures routinely included 100 units/ml penicillin and 100 μg/ml streptomycin.
# For transfection of CHO-K1, NIH-3T3, and human fibroblast cells in 24-well plates, lipid and DNA (PCMV β-gal) were diluted separately into 25 μl aliquots of Opti-MEM I Reduced Serum Medium (GIBCO BRL; serum-free). […]
# Cells were rinsed with PBS, fixed for 5 minutes in 2% (v/v) formaldehyde, 0.2% glutaraldehyde in PBS, rinsed twice with PBS, and stained 2 hr to overnight with 0.1% β-gal, 5 mM potassium ferrocyanide, 5 mM potassium ferrocyanide, 2 mM MgCl2 in PBS. […] Transfection efficiency is evaluated by counting or estimating the number of β-gal positive cells (blue-stained cells). […]
substance,measurement,setting,value
"N,N,N′,N′-tetramethyltetrapalmyl-sperminetetrammonium iodide [Compound 3]",effectiveness for DNA transfection,[1]; Jurkat cells (Table 4),highly effective
same,transfection efficiency relative to DOSPA,"[1]; Jurkat cells, lower concentration of lipid required for optimal activity",comparable to DOSPA
same,effectiveness for DNA transfection,[2]; NIH-3T3 cells (Table 2),highly effective
same,transfection effectiveness relative to DOSPA,"[2]; NIH-3T3 cells, low amounts of DNA",approximately 10 fold
same,effectiveness for DNA transfection,[3],highly effective
same,transfection efficiency relative to DOSPA,"[4]; human fibroblasts, lower concentration of lipid required for optimal activity",comparable to DOSPA
same,effectiveness for DNA transfection,[4]; primary human fibroblast cells (Table 1),highly effective
